Measurements from PubChem BioAssay AID212 (DTP/NCI, 2004).
Where “and” joins values, the source holds several entries; their conditions need not be identical. Identical values can stand only once. Records with an inconclusive call do not appear.

System: BDF1 mice, colon carcinoma 38 sc, T/C %
Assay: NCI In Vivo Anticancer Drug Screen. Data for tumor model Colon Carcinoma 38 (subcutaneous) in B6D2F1 (BDF1) mice
Settings: endpoint: median tumor weight (est.), higher = larger tumour
Procedure, shortened: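 Mice with transplanted tumors are treated with compound or vehicle. Survival or tumor size is then measured in both groups. The ratio of treated to control gives the reported figure.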

[1] = dose: 0.75 mg/kg/injection, schedule: Q07DX002 (ip), vehicle: Klucel (hydroxypropylcellulose) (HPC)
[2] = dose: 50.0 mg/kg/injection, schedule: Q07DX002 (ip), vehicle: Klucel (hydroxypropylcellulose) (HPC)
[3] = dose: 100.0 mg/kg/injection, schedule: Q07DX002 (ip), vehicle: Klucel (hydroxypropylcellulose) (HPC)
[4] = dose: 200.0 mg/kg/injection, schedule: Q07DX002 (ip), vehicle: Klucel (hydroxypropylcellulose) (HPC)
[5] = dose: 25.0 mg/kg/injection, schedule: Q07DX002 (ip), vehicle: saline with Tween-80
[6] = dose: 50.0 mg/kg/injection, schedule: Q07DX002 (ip), vehicle: saline with Tween-80
[7] = dose: 100.0 mg/kg/injection, schedule: Q07DX002 (ip), vehicle: saline with Tween-80
[8] = dose: 200.0 mg/kg/injection, schedule: Q07DX002 (ip), vehicle: saline with Tween-80

CCN(CC)CCNc1ccc(CO)c2sc3ccccc3c(=O)c12
T/C (dose: 6.25 mg/kg/injection, schedule: Q07DX003 (ip), vehicle: clinical formulation): 120 % of control
T/C (dose: 6.25 mg/kg/injection, schedule: Q07DX003 (ip), vehicle: water): 90 % of control
T/C (dose: 12.5 mg/kg/injection, schedule: Q07DX003 (ip), vehicle: clinical formulation): 116 % of control
T/C (dose: 12.5 mg/kg/injection, schedule: Q07DX003 (ip), vehicle: water): 103 % of control
T/C (dose: 25.0 mg/kg/injection, schedule: Q07DX003 (ip), vehicle: clinical formulation): 77 % of control
T/C (dose: 25.0 mg/kg/injection, schedule: Q07DX003 (ip), vehicle: water): 114 % of control
T/C (dose: 50.0 mg/kg/injection, schedule: Q07DX003 (ip), vehicle: clinical formulation): 63 % of control
T/C (dose: 50.0 mg/kg/injection, schedule: Q07DX003 (ip), vehicle: water): 30 % of control
T/C (dose: 100.0 mg/kg/injection, schedule: Q07DX003 (ip), vehicle: clinical formulation): 14 % of control
T/C (dose: 100.0 mg/kg/injection, schedule: Q07DX003 (ip), vehicle: water): 11 % of control

C[CH2][Pb]([CH2]C)([CH2]C)[O]C(=O)COc1ccccc1
T/C [1]: 166 % of control
T/C (dose: 3.0 mg/kg/injection, schedule: Q07DX002 (ip), vehicle: Klucel (hydroxypropylcellulose) (HPC)): 151 % of control
T/C (dose: 6.0 mg/kg/injection, schedule: Q07DX002 (ip), vehicle: Klucel (hydroxypropylcellulose) (HPC)): 118 % of control
T/C (dose: 12.0 mg/kg/injection, schedule: Q07DX002 (ip), vehicle: Klucel (hydroxypropylcellulose) (HPC)): 176 % of control

Cc1cc2nc3[nH]c4ccccc4c3nc2cc1C
T/C (dose: 12.5 mg/kg/injection, schedule: Q07DX002 (ip), vehicle: Klucel (hydroxypropylcellulose) (HPC)): 164 % of control
T/C [2]: 199 % of control
T/C [3]: 172 % of control
T/C [4]: 220 % of control
T/C (dose: 400.0 mg/kg/injection, schedule: Q07DX002 (ip), vehicle: Klucel (hydroxypropylcellulose) (HPC)): 223 % of control

CC(C)NCC(O)COc1cccc2ccccc12 (centres undefined)
T/C (dose: 4.0 mg/kg/injection, schedule: Q07DX002 (ip), vehicle: Klucel (hydroxypropylcellulose) (HPC)): 122 % of control
T/C (dose: 8.0 mg/kg/injection, schedule: Q07DX002 (ip), vehicle: Klucel (hydroxypropylcellulose) (HPC)): 100 % of control
T/C (dose: 64.0 mg/kg/injection, schedule: Q07DX002 (ip), vehicle: Klucel (hydroxypropylcellulose) (HPC)): 88 % of control

C=C(OP(=O)(OC)OC)Sc1ccccc1C
T/C (dose: 0.18 mg/kg/injection, schedule: Q07DX002 (ip), vehicle: Klucel (hydroxypropylcellulose) (HPC)): 112 % of control
T/C (dose: 0.37 mg/kg/injection, schedule: Q07DX002 (ip), vehicle: Klucel (hydroxypropylcellulose) (HPC)): 59 % of control
T/C [1]: 101 % of control
T/C (dose: 1.5 mg/kg/injection, schedule: Q07DX002 (ip), vehicle: Klucel (hydroxypropylcellulose) (HPC)): 100 % of control
T/C (dose: 1.56 mg/kg/injection, schedule: Q07DX002 (ip), vehicle: Klucel (hydroxypropylcellulose) (HPC)): 122 % of control

O=c1ccc2ccccc2o1
T/C [2]: 115 % of control
T/C [3]: 118 % of control
T/C [4]: 118 % of control

O=C1N=C(Oc2ccccc2)SC1=O
T/C (dose: 12.5 mg/kg/injection, schedule: Q07DX002 (ip), vehicle: saline with Tween-80): 95 % of control
T/C [5]: 62 % of control and 80 % of control
T/C [6]: 53 % of control
T/C [7]: 88 % of control
T/C [8]: 118 % of control

CC(C)=CCC/C(C)=C/COc1ccc(/C=C2/C(=O)N(O)[C@@H](C)C(=O)N2O)cc1
T/C (dose: 6.25 mg/kg/injection, schedule: Q07DX002 (ip), vehicle: saline): 262 % of control
T/C (dose: 12.5 mg/kg/injection, schedule: Q07DX002 (ip), vehicle: saline): 202 % of control
T/C (dose: 25.0 mg/kg/injection, schedule: Q07DX002 (ip), vehicle: saline): 178 % of control
T/C (dose: 50.0 mg/kg/injection, schedule: Q07DX002 (ip), vehicle: saline): 154 % of control
T/C (dose: 100.0 mg/kg/injection, schedule: Q07DX002 (ip), vehicle: saline): 154 % of control

CCn1cnc2c(=S)nc[nH]c21
T/C [5]: 87 % of control
T/C [6]: 64 % of control
T/C [7]: 57 % of control
T/C [8]: 21 % of control

COc1ccc(C2C(=O)c3ccc(OC)cc3OC2c2ccccc2)cc1 (centres undefined)
T/C (dose: 25.0 mg/kg/injection, schedule: Q07DX002 (ip), vehicle: other): 84 % of control
T/C (dose: 50.0 mg/kg/injection, schedule: Q07DX002 (ip), vehicle: other): 56 % of control
T/C (dose: 100.0 mg/kg/injection, schedule: Q07DX002 (ip), vehicle: other): 47 % of control
T/C (dose: 200.0 mg/kg/injection, schedule: Q07DX002 (ip), vehicle: other): 50 % of control
T/C (dose: 400.0 mg/kg/injection, schedule: Q07DX002 (ip), vehicle: other): 61 % of control
